Where two headings read alike, the source gives them in different places.
What was measured:
hA3AR [1] = target: T1, hA3AR (Homo sapiens, UniProt P0DMS8); assay: TGFα shedding assay at hA3AR; assay type: cell-based; conditions: for Emax: HEK293 cells; for EC50: hA3AR-expressing HEK293 cells
T1 construct: expressed in transfected cells; host or cells: HEK293
T1 sequence (P0DMS8 1-318): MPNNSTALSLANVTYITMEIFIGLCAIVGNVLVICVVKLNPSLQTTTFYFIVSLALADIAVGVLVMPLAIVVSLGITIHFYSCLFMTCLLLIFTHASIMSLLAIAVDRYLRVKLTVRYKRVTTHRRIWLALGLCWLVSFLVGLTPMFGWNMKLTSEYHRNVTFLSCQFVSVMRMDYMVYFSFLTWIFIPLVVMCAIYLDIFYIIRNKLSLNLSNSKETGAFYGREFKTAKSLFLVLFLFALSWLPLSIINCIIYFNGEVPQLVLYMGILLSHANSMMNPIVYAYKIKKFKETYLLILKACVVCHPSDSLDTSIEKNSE
Protocol: This recently-developed assay utilizes an alkaline phosphatase-TGFα fusion protein reporter system to quantitatively evaluate specific GPCR-mediated G protein activation (shown in Figure 3) of test compounds [22].
Expression vectors (250 ng of AP-TGFα plasmid, 100 ng of hA2AAR/hA3AR plasmid and 50 ng of Gα protein) were transfected into HEK293 cells using Lipofectamine 2000 (1.25 μL/well) in 12-well plates. Transfection of siRNA (final concentration: 10 nM) was conducted with Lipofectamine RNAiMAX (1 μL/well), 48 h before assay to prevent interference from other signaling pathways. Transfected cells were detached with brief treatment with phosphate-buffered saline (PBS) containing 0.05% trypsin and 0.52 mM ethylenediaminetetraacetic acid (EDTA). The cell suspension was pelleted via centrifugation (190 g, 5 min). Trypsin was removed from the cells via resuspension in PBS, followed by 5 min of incubation at room temperature. Cells were subsequently pelleted with centrifugation (190 g, 5 min) and resuspended in Hank’s Balanced Salt Solution (HBSS) containing 5 mM 4-(2-hydroxyethyl)-1-piperazineethanesulfonic acid (HEPES) (pH 7.4). Resuspended cells were plated in 90 μL/well in 96-well plate and incubated at 37 °C in 5% CO2 for 30 min. 10 μL of 10X concentration of compounds were added and incubated for 1 h at 37 °C in 5% CO2. Plates were centrifuged at 190 g for 2 min. […] per well of conditioned medium (10 mM p-NPP, 40 mM Tris-HCl (pH 9.5), 40 mM NaCl & 10 mM MgCl2) was transferred into a conditioned medium plate and 80 µL per well of conditioned medium was added to the test compound plate. Absorbance at 405 nm (OD405) of both plates was read before and after a 1-h incubation at 37 °C using a microplate reader.

hA3AR [2] = target: T1, hA3AR; conditions: read-out: Ki hA3; cited from earlier work
hA1 = conditions: cited from earlier work
hA2B = conditions: cited from earlier work
hA2AAR = target: T2, hA2AAR (Homo sapiens, UniProt P29274); conditions: ratio of binding affinities; cited from earlier work
T2 construct: expressed in transfected cells; host or cells: HEK293

hA3AR [3] = target: T1, hA3AR; conditions: cited from earlier work
Caco-2 cell line = assay: MTT cytotoxicity assay, Caco-2; assay type: cell-based; conditions: Homo sapiens; Caco-2, MTT, 72 h
Protocol: (§1) Human colorectal carcinoma cell lines, HCT-116 and Caco-2, were used as models for colorectal cancer cells overexpressing hA3AR. Human normal colon cell line CCD-18Co was used as a model for normal colon cells that express normal levels of hA3AR. The HCT-116, Caco-2 and CCD-18Co cell lines were all cultured in accordance with the ATCC protocols.
(§2) The cytotoxicity of compound 4 was determined by 3-(4,5-dimethylthiazol-2-yl)-2,5-diphenyltetrazolium bromide (MTT) assay. The cells were harvested from culture flasks by trypsinisation and seeded into 96-well microculture plates (Costar, Corning, USA) at the seeding density of 6000 cells per well or 10,000 per well (CCD18Co). After the cells were allowed to resume exponential growth for 24 h, they were exposed to compound 4 or 2-Cl-IB-MECA in media for 72 h. The drugs were diluted in complete medium at the desired concentration, and 100 μL of the drug solution was added to each well and serially diluted to other wells. After exposure for 72 h, drug solutions were replaced with 100 μL of MTT in complete media (5 mg ml^−1) and incubated for an additional 1 h. Subsequently, the medium was aspirated and the purple formazan crystals formed in viable cells were dissolved in 100 μL of dimethyl sulfoxide (DMSO) per well. Optical densities were measured at 570 nm with a microplate reader. […]

HepG2 cell line = assay: MTT cytotoxicity assay, HepG2; assay type: cell-based; conditions: Homo sapiens, 72 h
Protocol: The HepG2 cell line was also cultured in accordance with the ATCC protocol.
as §2, with “reader. The quantity of viable cells was expressed in terms of treated/control (T/C) values by comparison to untreated control cells, and 50% inhibitory concentrations (IC50) were calculated from concentration-effect curves by interpolation using GraphPad Prism (Version 5.0, GraphPad Software, USA).” for “reader.”

HCT-116 cell line = assay: MTT cytotoxicity assay, HCT-116; assay type: cell-based; conditions: Homo sapiens; HCT-116, MTT, 72 h
Protocol: as §1, §2

UV-vis stability assay = assay type: physicochemical; conditions: 50 μM in water, RPMI-1640 and DMEM culture medium over 72 h
Protocol: Stock solution of 50 μM of compound 4 was prepared in DMSO. Two quartz cuvettes were soaked in 70% ethanol in water for 1h. The quartz cuvettes were subsequently left to dry in a biological safety cabinet. When both quartz cuvettes were dry, the quartz cuvettes, i.e., sample cuvette and blank cuvette, were filled with water or culture media (RPMI-1640 or DMEM) and parafilmed before being transferred into a UV-vis spectrophotometer (USA). The UV-vis spectrophotometer was auto-zeroed and the background was scanned from wavelengths of 200 nm to 800 nm. The sample cuvette was removed from the UV-vis spectrophotometer and transferred into the biological safety cabinet. Compound 4 was dissolved at a final concentration of 50 μM in 1.5 mL of water, RPMI or DMEM containing 10% FBS (without phenol red). The UV−vis profiles of the samples were monitored using UV-vis over 72 h at 1 h intervals from 200 to 800 nm.

CCD-18Co cell line = assay: MTT cytotoxicity assay, CCD-18Co; assay type: cell-based; conditions: Homo sapiens, CCD-18Co normal colon cell line, 72 h
Protocol: as §1, §2

[4] = system: human colon carcinoma patients; conditions: phase II; cited from earlier work
[5] = HEK293, efficacy as compared to adenosine, read-out: Emax

T2 sequence (P29274 whole entry): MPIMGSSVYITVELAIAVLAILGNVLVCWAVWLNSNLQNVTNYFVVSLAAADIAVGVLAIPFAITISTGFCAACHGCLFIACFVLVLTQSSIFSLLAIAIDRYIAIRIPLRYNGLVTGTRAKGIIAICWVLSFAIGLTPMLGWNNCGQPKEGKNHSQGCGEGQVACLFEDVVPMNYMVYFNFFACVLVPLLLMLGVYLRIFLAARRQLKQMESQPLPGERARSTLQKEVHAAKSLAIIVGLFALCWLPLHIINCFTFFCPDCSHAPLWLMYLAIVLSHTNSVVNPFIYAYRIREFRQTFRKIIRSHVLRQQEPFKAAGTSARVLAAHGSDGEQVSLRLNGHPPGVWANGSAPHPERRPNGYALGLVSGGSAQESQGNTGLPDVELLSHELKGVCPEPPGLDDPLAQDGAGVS

Nc1ncnc2c1ncn2[C@@H]1O[C@H](CO)[C@@H](O)[C@H]1O [Adenosine, reference compound]
Emax (hA3AR [1]; [5]): 100%

Cc1cc(C)nc(N2CCN(C(=O)Cc3c(C)[nH]c4ccccc34)CC2)n1 [Compound 1, indolylpyrimidylpiperazine (IPP)]
Ki (hA3AR [2]): > 100 µM
Ki (hA1): > 100 µM
Ki (hA2B): > 20 µM
selectivity hA2AAR/hA3AR (hA2AAR): > 12

Cc1cc(C)nc(N2CCN(CCc3c(C)[nH]c4ccccc34)CC2)n1 [Compound 2, decarbonyl IPP]
Ki (hA1): > 100 µM
Ki (hA2B): > 20 µM

CNC(=O)[C@H]1O[C@@H](n2cnc3c(NCc4cccc(I)c4)nc(Cl)nc32)[C@H](O)[C@@H]1O [Compound 2-Cl-IB-MECA, 2-Cl-IB-MECA, reference compound]
β-arrestin translocation response (hA3AR [3]): 102 ± 13%
IC50 (Caco-2 cell line): 31 ± 4 µM
IC50 (HepG2 cell line): 13 ± 3 µM
IC50 (HCT-116 cell line): 21 ± 6 µM

Cc1cc(C)nc(N2CCN(CC(=O)c3c[nH]c4ccccc34)CC2)n1 [Compound 3, 2-(4-(4,6-Dimethylpyrimidin-2-yl)piperazin-1-yl)-1-(1H-indol-3-yl)ethanone]
melting point: 165 °C (dec.)
EC50 (hA3AR [1]): essentially inactive

COc1cccc2c(C(=O)CN3CCN(c4nc(C)cc(C)n4)CC3)c[nH]c12 [Compound 4, 2-(4-(4,6-Dimethylpyrimidin-2-yl)piperazin-1-yl)-1-(7-methoxy-1H-indol-3-yl)ethanone]
Stability (UV-vis) (UV-vis stability assay): excellent stability
IC50 (CCD-18Co cell line): 176 ± 48 µM
melting point: 162 °C (dec.)
IC50 (Caco-2 cell line): 77 ± 10 µM
Emax (hA3AR [1]; [5]): 30%
Emax (hA3AR [1]; efficacy as compared to adenosine): 31%
EC50 (hA3AR [1]; read-out: EC50): 2.89 ± 0.55 µM
IC50 (HepG2 cell line): 30 ± 7 µM
IC50 (HCT-116 cell line): 84 ± 9 µM

Cc1cc(C)nc(N2CCN(CC(=O)c3c[nH]c4c(Cl)cccc34)CC2)n1 [Compound 5, 2-(4-(4,6-Dimethylpyrimidin-2-yl)piperazin-1-yl)-1-(7-chloro-1H-indol-3-yl)ethanone]
melting point: 163 °C (dec.)
Emax (hA3AR [1]; [5]): 77%
EC50 (hA3AR [1]; read-out: EC50): 13.4 ± 2.96 µM

Cc1cc(C)nc(N2CCN(CC(=O)c3c[nH]c4c([N+](=O)[O-])cccc34)CC2)n1 [Compound 6, 2-(4-(4,6-Dimethylpyrimidin-2-yl)piperazin-1-yl)-1-(7-nitro-1H-indol-3-yl)ethanone]
melting point: 165 °C (dec.)
Emax (hA3AR [1]; [5]): 72%
EC50 (hA3AR [1]; read-out: EC50): 33.2 ± 16.5 µM

CNC(=O)[C@H]1O[C@@H](n2cnc3c(NCc4cccc(I)c4)ncnc32)[C@H](O)[C@@H]1O [IB-MECA]
β-arrestin translocation response (hA3AR [3]): 100 ± 7%
disease stabilization, share of patients [4]: 35%

OC[C@H]1O[C@@H](n2cnc3c(NCc4cccc(I)c4)ncnc32)[C@H](O)[C@@H]1O [MRS541]
β-arrestin translocation response (hA3AR [3]): 30.8 ± 1.6%

Source: paper PMC6832257, “Design, Synthesis and Evaluation of New Indolylpyrimidylpiperazines for Gastrointestinal Cancer Therapy” (Molecules, 2019)
